Test results: patent publication US8710068B2, “Method of treating cancer using a survivin inhibitor” (The Trustees Of The University Of Pennsylvania, priority 2009, dated 2014)

Tests used:
[1] = molecular target: T1, Sur-F86A (Homo sapiens, UniProt O15392, F86A); assay: ITC binding to Survivin mutant F86A; conditions: in words
T1 construct: made in house; host or cells: bacteria
Experimental: FIG. 5 illustrates an analysis of S12-Survivin binding with isothermal titration calorimetry (ITC). Single-site point mutagenesis was performed to create the Survivin mutants F86A and V89Y. The native and the mutant proteins were produced and purified from bacteria.
In order to examine the specificity of the binding, we generated point mutations on the Survivin protein at the site presumably targeted by S12. The two mutations were substitutions of phenylalanine 86 with alanine (F86A) and valine 89 with tyrosine (V89Y). These two altered sites are also adjacent to the interface involved in dimerization of the Survivin protein. Based on structural analyses, we predict that alterations of either of these two amino acid residues may abolish the binding of S12 without affecting the overall structure of the Survivin protein.

[2] = system: HeLa cells; assay: Cell cycle analysis of DNA content by PI staining and FACS, HeLa; type: cell-based, human; conditions: HeLa, FACS DNA content
Experimental: FIG. 7 illustrates the effect of S2 or S12 on cell cycle progression. HeLa cells were treated with S2, S12, S10, S1 (control compound), or DMSO (control), propidium iodide (PI) staining and FACS analysis were performed to quantify the DNA content of cells.
FIG. 9 illustrates the effect of S12 on mitosis. (A) HeLa cells were treated with S12, S2 or DMSO for 15 hours. The cells were then fixed and subjected to immunostaining using antibodies specific for Aurora B (green) and Survivin (red). DNA was stained with DAPI. Chromosome misalignment is indicated with the arrowheads. (B) Percentage of S12-treated cells in mitosis, in metaphase, in anaphase/telophase, or with misaligned chromosomes. (C) Percentage of S2-treated cells in mitosis, in metaphase, in anaphase/telophase, or with misaligned chromosomes. (D) HeLa cells were treated with S12 (10 μg/ml) or DMSO (control) for 15 hours. Cells were examined by PI staining of DNA content by FACS analysis.
FIG. 17 illustrates (A) FACS analysis of DNA content of HeLa cells treated with SBDO3. Note the accumulation of cells at the G2/M stage. Cell death was also observed (sub-G1 population); (B) Immuno-fluorescence microscopy analysis of cell treated with SBDO3. Note that the microtubule bundles of the mitotic spindle are disorganized. The chromosomes are not aligned properly and cells cannot go through metaphase.
The candidate Survivin-targeting molecules identified by the virtual screen were examined for the ability to inhibit cell proliferation and mitosis. HeLa cells were treated with the compounds at various concentrations for 15 hours followed by examination of the DNA content by FACS analysis. […] The effects of S2 inflicted on cell proliferation and viability are consistent with the anticipated outcome caused by the ablation of Survivin functions. We have extended these studies to test a number of molecules that are structurally similar to S2, including S10, S11, S12 and S13. […] S12 affected cell proliferation and viability, consistent with the anticipated outcome caused by ablation of Survivin functions.
We analyzed distribution of cells in the different stages of the cell cycle by FACS. […] In addition, the inhibitory effect of SBDO3 is dose dependent (FIG. 17A).
We also conducted immuno-fluorescence studies on SBDO3 treated HeLa cells.

[3] = Western blot for PARP cleavage (caspase activation) and Survivin levels, HeLa; type: cell-based, human; conditions: 50 μg/ml, 12 hours, anti-Survivin Western blot
Experimental: (§1) FIG. 12 illustrates S12 induction of caspase activation in HeLa cells. (A) HeLa cells were incubated with DMSO (control), S12, Taxol, nocodazole (Noco), or etoposide (Etop) for 12 hours. The cell lysates were analyzed by Western blot using the anti-PARP antibody (top panel), the anti-α-tubulin antibody (middle panel), or the anti-Survivin antibody (bottom panel). (B) S12 causes cell death in a cell cycle dependent manner. HeLa cells, either unsynchronized or synchronized by thymidine treatment were incubated either with S12 or DMSO. Cell death was quantitated by trypan blue exclusion assay.
(§2) We examined whether S12 treatment leads to apoptosis. HeLa cells were incubated with S12 at the concentration of 50 μg/ml or with DMSO alone for 12 hours. To compare the effect with that of other therapeutic agents, HeLa cells were also treated with Taxol, nocodazole, or etoposide, respectively. The cell lysates were collected and subjected to Western blot analysis using an anti-PARP antibody. […] We also re-probed the blot with an anti-Survivin antibody. […] These observations, combined with the earlier findings, indicate that the Survivin-targeting molecule S12 can block mitosis and cause apoptosis.

[4] = system: PARP; assay: as above; type: cell-based, human; conditions: 12 hours
Experimental: as §1, §2

[5] = Toxicity observation in xenograft mice; type: in vivo; conditions: 5 to 50 mg/kg, xenograft studies
[6] = system: HeLa cells; assay: Trypan blue exclusion cell death, synchronized vs unsynchronized HeLa; type: cell-based, human
Experimental: as §1
We wanted to determine if the Survivin-targeting compounds induce cell death during mitosis but could not affect the phenotype or influence in other stages of the cell cycle. To this end, we blocked HeLa cells in the S phase by thymidine treatment and examined whether the cells were susceptible to cell death induced by S12. […] Thus, the current data support the notion that S12 induced death of cells is a consequence of mitotic arrest rather than general cytotoxicity and indicate a unique cell cycle specific functionality of Survivin in this process.

T1 sequence (O15392 whole entry F86A): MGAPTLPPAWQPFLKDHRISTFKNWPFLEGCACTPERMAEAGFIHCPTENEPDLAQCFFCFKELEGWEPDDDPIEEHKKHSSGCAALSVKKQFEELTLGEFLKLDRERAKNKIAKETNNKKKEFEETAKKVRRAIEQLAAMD

Q: Which “binding to mutant Sur-F86A” value [1] does the source give for `O=C(CC1(O)C(=O)Nc2ccc(Br)cc21)c1ccc2c(c1)OCO2` (stereo not drawn) [S12] here?
A: did not bind

Q: And the “accumulation of cells in the G2/M stage” value ([2]; 15 hours)?
A: accumulation of cells in the G2/M stage

Q: And the “sub-G1 population (cell death)” value [2]?
A: increase of cells in the sub-G1 population

Q: What about the “overall Survivin levels” value [3] of the same molecule?
A: did not significantly affect

Q: What about the “cleavage of PARP (caspase activation)” value ([4]; 50 μg/ml, Western blot) of the same molecule?
A: detected

Q: What about the “apoptosis induction compared with other agents” value ([4]; at the concentrations employed) of the same molecule?
A: more potent in inducing apoptosis than Taxol, nocodazole, or etoposide

Q: What about the “toxic effects to the mice” value [5] of the same molecule?
A: no overtly toxic effects

Q: What about the “cell death of S phase-arrested cells” value ([6]; HeLa blocked in S phase by thymidine) of the same molecule?
A: insensitive

Q: What about the “cell death of unsynchronized cells” value ([6]; unsynchronized HeLa) of the same molecule?
A: underwent apoptosis
